Earlier results on two molecules are cited in US12070034B2, “Synergistic herbicidal combinations” (UPL LTD, priority 2017, dated 2024).

For this series the following is noted: acid form, before neutralisation with ammonium phosphate dibasic.

As for `O=C(O)COc1ccc(Cl)cc1Cl` [2,4-D acid], the solubility is on record as 311 mg/I.

With `Nc1c(Cl)c(Cl)nc(C(=O)O)c1Cl` [Picloram acid], the solubility is listed as 560 mg/I.
